“Also recorded” adds a separate entry of the source.
Assays:
[1] = tested on: pools of cancer cell lines; assay: Single-cell heterogeneity analysis of drug responses (clustering of scRNA-seq profiles); type: cell-based, human; details: lung cell line IALM, 24 hours post-treatment
Source text: Specifically, the edgeR quasi-likelihood approach was used (Lun et al. 2016), following the pipeline in Soneson et al. 2018, with the cell detection rate (the fraction of genes with non-zero reads detected) included as a covariate.
To identify subpopulations of bortezomib treated cells (FIGS. 4D-4F), Seurat's default methods were used to normalize the data, detect variable genes, and compute PCs (using 5000 most variable genes, and 50 PCs). Seurat's default clustering methods were then used to cluster cells for each cell line (using the 20 nearest neighbors, and a clustering resolution parameter of 0.25).
To identify sub-populations of cells from a given cell line in a consistent fashion across baseline and treatment conditions (for analysis and presentation in FIG. 19), the following procedure was employed. After restricting to cells from the target cell line, the scTransform method (Hafemeiester et al. 2019) was used to normalize the data, identify 5,000 variable genes, and regress out experimental condition as a covariate to align clusters across conditions. Seurat's default clustering methods (using the top 10 PCs, 20 nearest neighbors, and a clustering resolution parameter of 0.25) were then used to identify clusters jointly across treated and control cells.

pool of 24 cell lines = assay: Trametinib time course: MIX-Seq combined with Cell Hashing; type: cell-based, human
Procedure: For the trametinib time course experiment, cells were treated with trametinib with a staggered dosing schedule so all timepoints could be collected simultaneously. Cells were plated 19 hours prior to the first drug treatment, corresponding to the 48 hour time point. Cells were harvested for 10× capture ˜67 hours after initial seeding.
Cell Hashing (Stoeckius et al., 2018) was performed using the cell harvest method described above with the following changes. All steps were performed on ice. Harvested cells were resuspended in Cell Hashing Staining Buffer (lx PBS with 2% BSA and 0.02% Tween) prior to cell counting. Samples were counted in duplicate with two technical replicates by Countess (Life Technologies) to estimate total cell number. Up to 1,000,000 cells (range 3e5-1e6 cells) were resuspended in 100 microliters of Cell Hashing Staining Buffer. Cells were blocked with 10 microliters of Human TruStain FcX blocking solution (BioLegend) for 10 minutes at 4° C. 100 microliter cell suspensions in Cell Hashing Staining Buffer were then incubated with 2 μL of the appropriate BioLegend TotalSeq™-A Hashing antibody A Hashing antibody (a 1:50 dilution, using a total of 1 μg of antibody per cell suspension). TotalSeq™-A anti-human Hashtag antibodies #4-10 and 12-15 (product codes: 394607, 394609, 394611, 394613, 394615, 394617, 394619, 394623, 394625, 394627, 394629) were used. Cells were washed three times with 0.5 mL of Cell Hashing Staining Buffer and filtered through low volume 40 μm cell strainers (Flowmi). All cell suspensions were recounted to achieve a uniform concentration of 1,500 cells per microliter before pooling for 10× capture. A detailed general protocol is available (www.protocols.io/private/4AC0F6594480B498D8B60EAF6F518E66).
Classification of single-cell treatment conditions, as well as doublet classification, from the hashtag read counts data were performed using DemuxEM (Gaublomme et al. 2019), with default parameters.
The same approach described above was used to estimate the viability-related and viability-independent components of the response at each time point post-trametinib treatment. As substantial transcriptional changes across time points after DMSO-treatment were not observed […], data across DMSO conditions was pooled for analysis.
Leveraging this, responses of a pool of 24 cell lines to trametinib were measured along five time points, ranging from 3 to 48 hours post-treatment, using Cell Hashing to multiplex treatment conditions (FIG. 5A). As controls, DMSO-treated samples were included at each of the 5 time points, in addition to untreated samples, for a total of 11 conditions. Hashtag reads provided robust labeling of treatment conditions, with good tagging efficiency across all cell lines (FIGS. 21A and 21B). Since substantial differences in DMSO-treated cells were not observed across time points (FIG. 22), they were pooled together for subsequent analysis, yielding a total of 13,713 clearly-tagged single cells across all treatment conditions and cell lines.

[2] = tested on: pools of well-characterized cancer cell lines; assay: MIX-Seq: scRNA-seq transcriptional response profiling of drug-treated cell line pools; type: cell-based, human
Procedure: Cell line pools were made in sets of 25 cell lines. These 25 cell line pools were chosen based on doubling time and were grown in RPMI in the absence of phenol red and with 10% FBS. Cell lines were then washed with 10 mLs of PBS, and trypsinized with 1 mL trypsin which was then removed. Ten mLs of RPMI media were added to the cells post trypsinization and resuspended. Cells were then counted by a Nexcelom cellometer using 10 uL of cell suspension and 10 ul of Trypan blue. Equal numbers of cells per cell line were mixed together and spun down at 1,250 RPM for 5 minutes. Media was aspirated and the cells were resuspended in Sigma Cell Freezing media and frozen in 1 mL aliquots. This process was repeated for all of the 25 cell line pools. For MIX-Seq experiments involving larger pools, multiple 25 cell line pools were thawed in RPMI with 10% FBS, spun down and resuspended in 5 mLs of RPMI media. Cells were then counted and equal numbers were combined together on the day of plating to form larger pools of up to ˜100 cell lines.
For drug treatment experiments, cell line pools were cultured in RPMI containing 10% fetal bovine serum, in the absence of phenol red and penicillin/streptomycin. Cell line pools were validated as Mycoplasma free prior to initiating the experiment. Cell line pools were plated at 200,000 cells per well in 6 well plates containing 2 mL of RPMI culture media described above. […] Cell pools were plated ˜16-20 hours prior to drug treatment. Cells were treated with the described drugs or vehicle (DMSO) with a 0.2% final media DMSO concentration.
Generally cells were harvested after drug treatment using standard cell culture methods. Briefly, after drug treatment cells that were in suspension (presumably containing dead cells from drug treatment) were collected and reserved for addition to the adherent cell fraction. Adherent cells were washed once with 1×PBS, trypsinized in 1 mL trypsin, incubated for 3-7 minutes at 37 C, and then trypsin inactivated with 1 mL growth media. For Cell Hashing, cells were treated with TrypLE Express (ThermoFisher) instead of trypsin to reduce the amount of cell surface proteins digested that may affect the binding of Cell Hashing antibodies.
After trypsinization, adherent and suspension cells were combined for each treatment, pelleted, and resuspended in Cell Capture Buffer (lx PBS with 0.04% BSA). Cells were counted (including trypan blue non-viable cells) and resuspended at a concentration of 1,000 cells per microliter for standard loading on the Chromium Controller (10× Genomics), or at 1,500 cells per microliter for “super loaded” samples. Up to 40,000 cells were loaded per 10× channel for “super loaded” samples, with expected recovery of up to 20,000 cells per channel. Cell suspensions were captured on a 10× Chromium controller using Single Cell 3′ reagent chemistries (either version 2 or and version 3 reagents) FIG. 26.
Sequencing data were processed using 10× Cell Ranger software, run using the Cumulus cloud-based analysis framework (Li et al. 2019). Initial experiments were done with 10× Single Cell 3′ v2 chemistry, and were processed using version 2 of the Cell Ranger software. In later experiments v3 chemistry and the corresponding version 3 of Cell Ranger were used. Reads were aligned to the hg19 reference genome.
To estimate the average transcriptional response of each cell line to a perturbation, the data were first ‘sum-collapsed’—summing read counts across cells for each cell line and treatment condition—to produce a bulk RNA-seq style read counts profile for each sample (Crowell et al. 2019; Lun & Marioni 2017). […]

[3] = tested on: pools of cancer cell lines; assay: Relative cell line abundance estimated from pooled scRNA-seq; type: cell-based, human; details: particularly 24 hours post-treatment
Source text: Estimates of the effects of perturbations on relative cell line abundance were obtained by counting the number of (QC-passing) single cells from each cell line in each treatment condition, adding a ‘pseudo-count’ of 1, and normalizing counts across cell lines per condition. These relative abundance estimates were averaged across samples for each treatment condition to compute the log2-fold-change difference between drug-treated and control relative cell line abundances.
For selective compounds, cell cycle effects were also well-correlated with measured viability effects, such that drugs typically had larger effects in more sensitive cell lines (FIG. 18).

cancer cell lines = details: GDSC and PRISM drug sensitivity data; cited from earlier work
[4] = integrating across all cell lines
[5] = 99 cell-line pool, 24 hours post-treatment

| Compound | difference in response between two baseline subpopulations [1] | EGR1 expression (pool of 24 cell lines; 3 hours after treatment, sensitive cell line RCM1 and insensitive line TEN) | time at which viability-independent down-regulation of the KRAS signaling pathway emerged (pool of 24 cell lines; [4]) | time at which viability-related down-regulation of cell cycle genes started (pool of 24 cell lines; [4]) | time of maximal down-regulation of viability-independent genes such as EGR1 and DUSP6 (pool of 24 cell lines; [4]) | MCMI expression (pool of 24 cell lines; sensitive line RCM1 vs insensitive line TEN, time course 3 to 48 hours) | time of selective down-regulation of GINS2, E2F1 and MCM4 in sensitive cell lines (pool of 24 cell lines; viability-related response) | viability-independent response component (β0) [2, 5] | viability-related response component (β1) [2, 5] | drug-induced change in relative cell abundance versus measured drug sensitivity [3] | long-term viability response across cell lines (cancer cell lines) | robust transcriptional response signature ([2]; 6 and/or 24 hours post-treatment) |
| --- | --- | --- | --- | --- | --- | --- | --- | --- | --- | --- | --- | --- |
| CC(=O)Nc1cccc(-n2c(=O)n(C3CC3)c(=O)c3c(Nc4ccc(I)cc4F)n(C)c(=O)c(C)c32)c1 [trametinib] | subtle but significant differences | dramatically down-regulated | 3 hours after treatment | 24 hours after treatment | 3 hours post-treatment | selectively down-regulated only in the sensitive line RCM1, and only after 12-24 hours post-treatment | 12-24 hours post-treatment | strong down-regulation of MAPK signaling genes, including EGR1, ETV4/5, DUSP4/5/6, and SPRY2/4, KRAS signaling pathways, and TNF-alpha signaling, as well as up-regulation of the interferon response | strong down-regulation of cell-cycle processes |  |  |  |
| Cc1c2c(nn1C)CSCc1cc(n(C)n1)CSc1cc(c3ccccc3c1)OCCCc1c(C(=O)O)n(C)c3c-2c(Cl)ccc13 [AZD5591] |  |  |  |  |  |  |  |  |  | this relationship was observed most strongly | strong selective viability responses | did not produce strong and/or selective transcriptional responses; also recorded: did not produce robust transcriptional response signatures; also recorded: a robust transcriptional response to the drug was not observed |

— US20220340976A1, “RAPID PREDICTION OF DRUG RESPONSIVENESS” (THE BROAD INSTITUTE, INC., priority 2019, published 2022)
